Activity calls are given as the source filed them. The rule behind the calls is not given here. Some results are limits rather than exact numbers.

Data set [1] has as its system Human immunodeficiency virus 1. As to the kind of experiment: Antiviral activity against HIV1 harboring K103N mutant infected in human MT4 cells assessed as inhibition of virus-induced cytopathic effect incubated for 5 days by MTT assay. It counts as functional, organism-based. The following applies: Human immunodeficiency virus 1, MT4, 120 h.
Data set [2] deals with Human immunodeficiency virus 1. Kind of data set: Antiviral activity against HIV1 harboring RT Y181C mutant infected in human MT4 cells assessed as inhibition of virus-induced cytopathic effect incubated for 5 days by MTT assay. It counts as functional, organism-based. The following applies: Human immunodeficiency virus 1, MT4, 120 h.
Data set [3] relates to Human immunodeficiency virus 1. Kind of data set: Antiviral activity against HIV1 harboring RT E138K mutant infected in human MT4 cells assessed as inhibition of virus-induced cytopathic effect incubated for 5 days by MTT assay. The following applies: Human immunodeficiency virus 1, MT4, 120 h. It counts as functional, organism-based.
Data set [4] concerns Human immunodeficiency virus 1. Kind of data set: Antiviral activity against HIV1 harboring RT RES056 mutant infected in human MT4 cells assessed as inhibition of virus-induced cytopathic effect incubated for 5 days by MTT assay. It counts as functional, organism-based. The following applies: Human immunodeficiency virus 1, MT4, 120 h.
Data set [5] can be described thus: Cytotoxicity against mock-infected human MT4 cells incubated for 5 days by MTT assay. It counts as cell-based. The conditions noted are these: time 5 day.
The nature of data set [6]: Selectivity index, ratio of CC50 for human MT4 cells to EC50 for Antiviral activity against HIV-1 IIIB infected in human MT4 cells. The following applies: read-out: Selectivity Index. It counts as toxicity, cell-based.
For data set [7], the system named is Human immunodeficiency virus 1. Kind of data set: Antiviral activity against HIV1 harboring RT F227L/V106A mutant infected in human MT4 cells assessed as inhibition of virus-induced cytopathic effect incubated for 5 days by MTT assay. It counts as functional, organism-based. The conditions noted are these: Human immunodeficiency virus 1, MT4, 120 h.
In data set [8] the test system is Human immunodeficiency virus 1. Kind of data set: Antiviral activity against HIV1 harboring RT L100I mutant infected in human MT4 cells assessed as inhibition of virus-induced cytopathic effect incubated for 5 days by MTT assay. It counts as functional, organism-based. The conditions noted are these: Human immunodeficiency virus 1, MT4, 120 h.
In data set [9] the test system is MT4. Kind of data set: Antiviral activity against wild type HIV-2 ROD infected in human MT4 cells assessed as inhibition of virus-induced cytopathic effect measured after 5 days by MTT assay. The following applies: Human immunodeficiency virus 2, ISOLATE ROD, time 5.0 day. It counts as functional, cell-based.
In data set [10] the test system is Human immunodeficiency virus 1. Kind of data set: Antiviral activity against wild type HIV-1 IIIB infected in human MT4 cells assessed as inhibition of virus-induced cytopathic effect measured after 5 days by MTT assay. It counts as functional, organism-based. The following applies: Human immunodeficiency virus 1, IIIB, MT4, 120 h.
For data set [11], the system named is Human immunodeficiency virus 1. Kind of data set: Antiviral activity against HIV1 harboring RT Y188L mutant infected in human MT4 cells assessed as inhibition of virus-induced cytopathic effect incubated for 5 days by MTT assay. It counts as functional, organism-based. The conditions noted are these: Human immunodeficiency virus 1, MT4, 120 h.

In the case of `Cc1cc(C#CC=C2CCN(S(=O)(=O)C3CC3)CC2)cc(C)c1Oc1ccnc(Nc2ccc(C#N)cc2)n1`, the half-maximal effective concentration (EC50) in data set [1] was 0.284 µM; in [2] it was above 4.66 µM; in data set [3], 0.685 µM; in data set [4], above 4.66 µM; in data set [7] it was above 4.66 µM; in data set [8], above 4.66 µM. Moreover, the results for the concentration for a half-maximal effect (EC50) in data set [10] and in [11] were 0.098 µM and 1.41 µM, respectively. It took 4.66 µM to reach half-maximal cytotoxicity in [5] (CC50 at 120 h). Moreover, the selectivity ratio in [6] was 47. Besides, in data set [9], the result was inactive.

As for `CCS(=O)(=O)N1CCC(=CC#Cc2cc(C)c(Oc3ccnc(Nc4ccc(C#N)cc4)n3)c(C)c2)CC1`, the EC50 in data set [1] is 0.165 µM; in data set [2] it was above 1.35 µM; in [3], 0.493 µM; in data set [4], above 4.96 µM; in [7] it was above 4.96 µM; in data set [8] it was 1.08 µM. Also, the concentration for a half-maximal effect (EC50) in data set [10] was 0.079 µM; in data set [11], 1.28 µM. Also, in data set [5], the CC50 at 120 h was found to be 4.96 µM. Also, the selectivity ratio in [6] was 62. Moreover, the outcome in data set [9] was inactive.

With `Nc1ccn([C@H]2CS[C@@H](CO)O2)c(=O)n1`, the EC50 in data set [1] was determined as 2.79 µM; in data set [2], 3.4 µM; in data set [3], 8.27 µM; in data set [4] it was 5.06 µM; in data set [7], 2.17 µM; in data set [8] it was 1.15 µM. For the same compound, the EC50 in data set [10] was 5.23 µM; in data set [11], 4.57 µM. Further, the CC50 at 120 h in data set [5] was above 87.2 µM. The selectivity ratio in data set [6] was above 309. Further, the result in data set [9] was inactive.

Turning to `Cc1cc(C#CC=C2CCN(Cc3ccccc3C#N)CC2)cc(C)c1Oc1ccnc(Nc2ccc(C#N)cc2)n1`, the 50% effective concentration (EC50) in data set [1] was 1.01 µM; in data set [2] it was 20.4 µM; in data set [3] it was 5.46 µM; in data set [4], above 227 µM; in [7], above 42.4 µM; in [8], 8.54 µM. Moreover, the EC50 in data set [10] is 0.376 µM; in data set [11] it was 16.1 µM. In data set [5], this compound showed a CC50 at 120 h above 227 µM. For the same compound, the selectivity ratio in [6] is above 604. The outcome in data set [9] was inactive.

Consider `Cc1cc(C#CC=C2CCN(Cc3ccccn3)CC2)cc(C)c1Oc1ccnc(Nc2ccc(C#N)cc2)n1`, for which the EC50 in data set [1] was 0.2 µM; in [2], 4.25 µM; in data set [3], 0.805 µM; in [4], above 5.58 µM; in data set [7], above 5.58 µM; in [8] it was above 5.58 µM. The concentration giving a half-maximal response (EC50) in data set [10] amounted to 0.074 µM; in data set [11], 1.03 µM. Also, in data set [5], it took 5.58 µM to reach half-maximal cytotoxicity (CC50 at 120 h). Further, the selectivity ratio in data set [6] was 75. Also, the outcome in data set [9] was inactive.

For `CCOC(=O)CN1CCC(=CC#Cc2cc(C)c(Oc3ccnc(Nc4ccc(C#N)cc4)n3)c(C)c2)CC1`, the half-maximal effective concentration (EC50) in data set [1] was 39 µM; in [2] it was above 201 µM; in data set [3], above 201 µM; in data set [4], above 201 µM; in [7] it was above 201 µM; in data set [8] it was above 201 µM. Further, the EC50 is 7.05 µM in data set [10] and above 201 µM in [11]. This compound had a half-maximal cytotoxic concentration (CC50) at 120 h in [5] of 201 µM. In addition, the selectivity ratio in data set [6] came to 29. For the same compound, the result in data set [9] was inactive.

For `C=CC(=O)N1CCC(=CC#Cc2cc(C)c(Oc3ccnc(Nc4ccc(C#N)cc4)n3)c(C)c2)CC1`, the EC50 in [1] was 0.046 µM; in [2], 1.1 µM; in data set [3] it was 0.24 µM; in data set [4], above 4.1 µM; in data set [7] it was above 4.1 µM; in data set [8], 0.345 µM. In addition, the EC50 worked out at 0.035 µM in data set [10] and 0.409 µM in data set [11]. Further, the CC50 at 120 h in [5] came out at 4.1 µM. Moreover, in data set [6], the selectivity ratio stood at 116. In addition, in data set [9], the result was inactive.

Consider `Cc1cc(C#CC=C2CCN(Cc3cccc([N+](=O)[O-])c3)CC2)cc(C)c1Oc1ccnc(Nc2ccc(C#N)cc2)n1`, for which the concentration for a half-maximal effect (EC50) in data set [1] is 0.51 µM; in data set [2] it was 5.55 µM; in [3], 2.15 µM; in data set [4] it was above 74.6 µM; in data set [7], 26.7 µM; in [8] it was 2.77 µM. Moreover, the EC50 in [10] turned out to be 0.187 µM; in [11], 5.33 µM. In addition, the midpoint of cytotoxicity in data set [5], the CC50 at 120 h, lay at 74.6 µM. Further, the selectivity ratio in data set [6] was found to be 399. For the same compound, in [9], the result was inactive.

As for `Cc1cc(C#CC=C2CCN(C(=O)N(C)C)CC2)cc(C)c1Oc1ccnc(Nc2ccc(C#N)cc2)n1`, the EC50 in [1] is 0.086 µM; in data set [2], 0.799 µM; in data set [3] it was 0.265 µM; in [4] it was above 4.43 µM; in data set [7], above 4.43 µM; in data set [8], 0.617 µM. Besides, the figures for the concentration giving a half-maximal response (EC50) in [10] and in [11] were 0.035 µM and 0.521 µM, respectively. Besides, in data set [5], the CC50 at 120 h amounted to 4.43 µM. The selectivity ratio in data set [6] is 125. For the same compound, the result in [9] was inactive.

Regarding `COC(=O)c1ccc(CN2CCC(=CC#Cc3cc(C)c(Oc4ccnc(Nc5ccc(C#N)cc5)n4)c(C)c3)CC2)cc1`, the EC50 is 0.782 µM in data set [1]; above 33.6 µM in data set [2]; 5.46 µM in data set [3]; above 33.6 µM in [4]; above 33.6 µM in [7]; above 33.6 µM in data set [8]. Also, the 50% effective concentration (EC50) was 0.656 µM in data set [10] and above 33.6 µM in [11]. Moreover, the midpoint of cytotoxicity in [5], the CC50 at 120 h, lay at 33.6 µM. The selectivity ratio in [6] came to 51. Moreover, in [9], the outcome was inactive.

Regarding `Cc1cc(C#CC=C2CCN(S(=O)(=O)C(C)C)CC2)cc(C)c1Oc1ccnc(Nc2ccc(C#N)cc2)n1`, the EC50 in [1] was 0.573 µM; in [2], above 4.58 µM; in [3] it was 0.918 µM; in data set [4], above 4.58 µM; in data set [7], above 4.58 µM; in data set [8], above 4.58 µM. In addition, the results for the EC50 in data set [10] and in data set [11] were 0.171 µM and above 4.58 µM, respectively. The same compound yielded a half-maximal cytotoxic concentration (CC50) at 120 h in data set [5] of 4.58 µM. Besides, the selectivity ratio in [6] worked out at 27. For the same compound, the result in data set [9] was inactive.

In the case of `Cc1cc(C#CC=C2CCN(S(=O)(=O)N(C)C)CC2)cc(C)c1Oc1ccnc(Nc2ccc(C#N)cc2)n1`, the EC50 is 0.209 µM in [1]; above 4.79 µM in [2]; 0.75 µM in data set [3]; above 4.79 µM in data set [4]; above 4.79 µM in data set [7]; above 4.79 µM in data set [8]. The half-maximal effective concentration (EC50) in data set [10] was 0.114 µM; in data set [11] it was above 4.79 µM. In data set [5], this compound showed a CC50 at 120 h of 4.79 µM. In [6], the selectivity ratio is 42. Further, the result in data set [9] was inactive.

As for `Cc1cc(C#CC=C2CCN(C(=O)OC(C)(C)C)CC2)cc(C)c1Oc1ccnc(Nc2ccc(C#N)cc2)n1`, the 50% effective concentration (EC50) is above 56.7 µM in data set [1]; above 56.7 µM in [2]; above 56.7 µM in [3]; above 56.7 µM in [4]; above 56.7 µM in data set [7]; 0.984 µM in data set [8]. Moreover, the concentration giving a half-maximal response (EC50) in [10] was determined as 0.643 µM; in data set [11] it was 5.56 µM. For the same compound, the half-maximal cytotoxic concentration (CC50) at 120 h in data set [5] amounted to 16.7 µM. Further, the selectivity ratio in data set [6] is 26. Further, the result in data set [9] was inactive.

In the case of `O=C1Nc2ccc(Cl)cc2[C@@](C#CC2CC2)(C(F)(F)F)O1` [EFAVIRENZ], the EC50 was 0.103 µM in data set [1]; 0.006 µM in data set [2]; 0.007 µM in data set [3]; 0.332 µM in [4]; 0.037 µM in data set [8]; 0.212 µM in data set [11]. This compound returned a CC50 at 120 h in data set [5] above 6.35 µM. Moreover, the outcome in data set [9] was inactive.

These data come from ChEMBL document CHEMBL4811290, “Exploiting the hydrophobic channel of the NNIBP: Discovery of novel diarylpyrimidines as HIV-1 NNRTIs against wild-type and K103N mutant viruses” (Bioorg Med Chem, 2021).
